Experimental data taken from US20250313563A1, “GLYCOGEN SYNTHASE KINASE 3 INHIBITORS AND USES THEREOF” (The Broad Institute, Inc., priority 2022, published 2025).
Entries after “also recorded” stand apart in the source; their conditions may differ. Where two headings read alike, the source gives them in different places.

How the values were obtained:
[1] = system: β-catenin nuclear translocation in SH-SY5Y cells; test: β-catenin translocation assay; format: cell-based; details: HEK-huTau GSK3α vs SH-SY5Y β-catenin
Protocol: SH-SY5Y cells were seeded into a 96-well CellCarrier Ultra (Perkin Elmer) plate at a density of 1×10^5 cells/ml in complete DMEM. Sixteen hours following plating, media was changed to DMEM with 2% serum, and compound was added with a D300e Digital Dispenser (Tecan) for an incubation time of six hours. After compound incubation, media was removed, and cells were fixed with 4% PFA for 10 minutes at room temperature. Each well was washed three times with PBS-T and then blocked with buffer (1×PBS with 5% Normal Goat Serum and 0.3% Triton X-100) for 30 minutes at room temperature. β-Catenin primary antibody (Cell Signaling #8480) was added at 1:500 dilution in blocking buffer and the cells were allowed to incubate in primary overnight at 4° C. The following day, primary antibody was removed, each well was washed three times with PBS-T, and secondary antibody (1:2000 anti-rabbit AlexaFluor Plus 488 and 1:10,000 Hoechst 33342) was added and allowed to incubate for 60 minutes at room temperature protected from light. After one-hour, secondary antibody was removed and wells were washed four times with PBS-T before imaging on the Opera Phenix. Sixteen fields per well were imaged with a 20× water lens.
Images were quantified in the Columbus Image Data Storage and Analysis software. Cells were identified using the Hoechst nuclear stain to identify individual nuclei. Intensity of the nuclear stain was also used to determine cell viability (Viable cells <30% CV of Hoechst Intensity)

[2] = molecular target: NanoLuc-GSK3β (Homo sapiens (Human), UniProt P49841); test: NanoBRET residence time, GSK3β; format: cell-based; details: inhibitor at 10× IC50, BRET every 5 min for 3 hours
Chain of NanoLuc-GSK3β (P49841 whole entry): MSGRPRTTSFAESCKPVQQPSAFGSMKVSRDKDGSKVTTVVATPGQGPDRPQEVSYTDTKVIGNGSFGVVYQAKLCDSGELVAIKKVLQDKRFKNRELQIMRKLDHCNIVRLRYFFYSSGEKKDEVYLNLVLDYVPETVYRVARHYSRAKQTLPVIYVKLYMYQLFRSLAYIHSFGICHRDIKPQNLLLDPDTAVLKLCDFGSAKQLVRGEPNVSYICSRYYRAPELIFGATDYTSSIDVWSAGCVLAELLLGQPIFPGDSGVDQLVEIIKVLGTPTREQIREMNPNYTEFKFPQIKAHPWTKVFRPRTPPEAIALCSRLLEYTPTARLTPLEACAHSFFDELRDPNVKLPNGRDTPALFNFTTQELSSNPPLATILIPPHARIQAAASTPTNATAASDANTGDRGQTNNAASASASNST

[3] = molecular target: GSK3α (GST-full length GSK3α) (Homo sapiens (Human), UniProt P49840); test: GSK3α TR-FRET kinase assay; format: biochemical; details: geometric mean, GMean
Chain of GSK3α (GST-full length GSK3α) (P49840 whole entry): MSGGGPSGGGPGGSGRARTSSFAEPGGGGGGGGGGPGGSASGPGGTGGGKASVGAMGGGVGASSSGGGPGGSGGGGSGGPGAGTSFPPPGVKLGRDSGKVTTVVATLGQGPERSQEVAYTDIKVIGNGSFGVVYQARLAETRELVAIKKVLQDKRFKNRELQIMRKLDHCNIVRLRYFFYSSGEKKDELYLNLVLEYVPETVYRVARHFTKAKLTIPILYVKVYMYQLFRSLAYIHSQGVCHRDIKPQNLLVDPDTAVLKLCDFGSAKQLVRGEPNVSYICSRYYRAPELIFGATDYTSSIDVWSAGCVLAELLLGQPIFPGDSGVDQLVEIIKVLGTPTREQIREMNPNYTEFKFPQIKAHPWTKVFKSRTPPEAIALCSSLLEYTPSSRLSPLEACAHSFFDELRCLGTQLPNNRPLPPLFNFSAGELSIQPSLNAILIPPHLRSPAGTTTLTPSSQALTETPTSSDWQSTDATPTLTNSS
Summary of the method: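 Full-length GST-tagged human enzyme (1 nM) is exposed to test compound for 30 min before substrates are added. Phosphorylation of a primed biotinylated glycogen synthase peptide proceeds 100 min at room temperature at low ATP (4 μM α; 2 μM β) or high ATP (1 mM). Product is quantified by TR-FRET.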

[4] = Drug exposure in blood and brain, free drug concentration in the brain; format: in vivo, Sprague Dawley rats; details: P10 rats
Protocol: (§1) Sprague Dawley rats were bred in-house and litters were injected with compound, I.P. at post-natal day 10. Rats were then euthanized at indicated times following drug administration. For tissue collection, animals were euthanized via decapitation, brains were quickly removed, and bisected sagitally. The right cortex, was isolated, placed into 2 mL microtubes along with a single 5 mm stainless steel bead and the left cortex were placed into 2 mL Lysing Matrix A tubes (MP Biomedicals, Santa Ana, CA), Both tubes were immediately snap frozen in liquid nitrogen.
Aqueous buffered homogenate was created from cortical tissue via bead beater, at a consistent homogenization factor, which was normalized by tissue weight. Total drug in brain was determined by measuring total exposure in brain in ng/ml (cortical tissue) via LC-MS/MS. This was then corrected to free concentration via an experimentally derived fu,br using rapid equilibrium dialysis with brain homogenate.
To determine drug exposure, blood and cortical tissue were analyzed at each time point following dosing.

[5] = system: tau phosphorylation at pThr231; test: Rat developmental model of tau phosphorylation; format: in vivo, Sprague Dawley rats; details: P10 rats
Protocol: as §1
To determine whether a selective GSK3α inhibitor could also lower tau phosphorylation in a more physiological setting, 837646 was administered to rats at post-natal day 10. […] In the current experiment, 837646 was administered at 60, 20 and 10 mg/kg in P10 rats. The animals were sacrificed at several time points following treatment.

[6] = molecular target: GSK3α (Homo sapiens (Human), UniProt P49840); test: pThr231 tau phosphorylation plate-based assay in HEK-huTau cells transfected with GSK3α; format: cell-based; details: HEK-huTau cells transfected with human GSK3α; 10-point dose response, 2 hours; read-out: GSK3α IC50 (inhibition of pThr231)
Chain of GSK3α (P49840 whole entry): as above
Protocol: HEK293 or SH-SY5Y cells were obtained from American Type Culture Collection (ATCC, Manassas, VA) and cultured in Dulbecco's modified Eagle's medium (DMEM) supplemented with 10% fetal bovine serum (FBS), 10 units/ml penicillin, and 10 μg/ml streptomycin (all reagents were purchased from Gibco, Waltham, MA). Cell cultures were maintained in a humidified 5% (v/v) CO2/air environment at 37° C. When the cells reached 50-80% confluence, they were transfected with a complex consisting of a 3:1 ratio of FuGENE 6 Transfection Reagent (Promega, Madison, WI) and plasmid DNA. Plasmid DNA was balanced out across reactions using an empty plasmid so that the same amount of DNA was added per well. This transfection complex was prepared following the manufacturers protocol and added directly to the cell media for 24 or 48 hours prior to lysis.
293T cells stably expressing human 2N4R Tau were transfected with appropriate cDNA plasmids. 24 hours following transfection cells were treated with compound in a 10-point dose-response (from 1000× stocks of compound) and lysates harvested 2 hours later with cell extraction buffer (Life Technologies Cat #BN0001) or RIPA Buffer with Halt protease/phosphatase inhibitors added.
For pThr231 assay: Lysate was diluted 1:100 in assay buffer and Total Tau and pTau T231 was assessed by plate-based ELISA as per manufacturer instructions (MSD Cat #K15121D-1). Total fluorescence was measured using an Envison plate reader.
To test the potency and isoform selectivity of GSK3 small molecule inhibitors, HEK-huTau cells were transfected with plasmids containing either human GSK3α or GSK3β. Twenty-four hours after transfection, compounds were added at a 10-point dose response curve (at a range of 30 μM-3 nM) for a total of 2 hours, and cell lysates were probed for total tau and pThr231 using a plate-based assay.

CCC1(c2cccc(C(F)(F)F)c2)C2=C(Nc3n[nH]cc31)C(F)C(C)(C)CC2=O (single isomer, unassigned) [Compound 837646, 4-ethyl-8-fluoro-7,7-dimethyl-4-(3-(trifluoromethyl)phenyl)-2,4,6,7,8,9-hexahydro-5H-pyrazolo[3,4-b]quinolin-5-one]
window between potency on tau phosphorylation by GSK3α and concentrations affecting β-catenin stabilization [1]: > 20 fold
residence time at GSK3β [2]: no difference in the residence time
IC50 ([3]; 1 nM GSK3α, 4 μM ATP, 30 minute preincubation, read-out: GSK3-A TR-FRET BIOCHEMICAL (TR-FRET), IC50): ≤ 100 nM
IC50 ([3]; GSK3-A (TR-FRET 1 mM ATP), IC50, 1 mM ATP): ≤ 100 nM
steady Cmax extending post injection [4]: 6 h
tau phosphorylation at pThr231 vs vehicle, 24 hr ([5]; I.P., 20 or 60 mg/kg, 24 hr): significantly different from the vehicle group
tau phosphorylation at pThr231 vs vehicle, 3 hours ([5]; I.P., 60, 20 and 10 mg/kg, 3 hours after administration): significant lowering of tau phosphorylation at pThr231; also recorded: reduction in tau phosphorylation at Thr231 at all doses tested
IC50 [6]: 150 nM
